The conditions of data set [1]: for Length of time for which stability is assumed: whole blood; for Relative stability in whole blood and plasma: whole blood versus plasma.
The conditions of data set [2]: plasma.
The format of data set [3] is physicochemical. The following applies: −80 °C.

This is an account of results in paper PMC9756784 (Journal of Mass Spectrometry and Advances in the Clinical …, 2022).

SMILES strings stand for the structures. Where two headings read alike, the source gives them in different places.

On to `CO/N=C(\C(=O)N[C@@H]1C(=O)N2C(C(=O)O)=C(COC(C)=O)CS[C@H]12)c1csc(N)n1` [Cefotaxime, cefotaxime], for which the “Length of time for which stability is assumed” value (“Length of time” for short) in data set [1] (4°C) stood at 48h 4 °C; in data set [1] (RT (room temperature)), 24h RT; in data set [2] (4°C), 48h 4 °C; in data set [2] (RT (room temperature)), 8h RT; in data set [2] (−80°C, M = month), 8M−80 °C.

For `Cc1onc(-c2c(F)cccc2Cl)c1C(=O)N[C@@H]1C(=O)N2[C@@H]1SC(C)(C)[C@@H]2C(=O)O` [Flucloxacillin, flucloxacillin], the “Relative stability in whole blood and plasma” value (“Relative stability” for short) in data set [1] is listed as “more stable in plasma”. The “Length of time” value in data set [1] (4°C) amounted to 8h 4 °C; in data set [1] (RT (room temperature)), 8h RT; in data set [2] (4°C) it was 24h 4 °C; in data set [2] (RT (room temperature)) it was 8h RT; in data set [2] (−20°C, W = week) it was 2W−20 °C; in data set [2] (−80°C, M = month) it was 8M−80 °C.

As to `CCN1CCN(C(=O)N[C@@H](C(=O)N[C@@H]2C(=O)N3[C@@H]2SC(C)(C)[C@@H]3C(=O)O)c2ccccc2)C(=O)C1=O` [Piperacillin, piperacillin], the “Length of time” value stood at 48h 4 °C in data set [1] (4°C); 24h RT in data set [1] (RT (room temperature)); 24h 4 °C in data set [2] (4°C); 5h RT in data set [2] (RT (room temperature)); 1W−20 °C in data set [2] (−20°C, W = week).

For the compound `CC(=O)NC[C@H]1CN(c2ccc(N3CCOCC3)c(F)c2)C(=O)O1` [Linezolid, linezolid], the “Relative stability” value in data set [1] was “stable in both matrices”. The “Length of time” value in data set [1] (4°C) was determined as 48h 4 °C; in data set [1] (RT (room temperature)), 24h RT; in data set [2] (4°C) it was 48h 4 °C; in data set [2] (RT (room temperature)), 24h RT; in data set [2] (−20°C, W = week), 2W−20 °C; in data set [2] (−80°C, M = month), 8M−80 °C. In addition, the “Stock solution stable for up to” value in data set [3] was determined as 20 months.

For `C[C@]1(Cn2ccnn2)[C@H](C(=O)O)N2C(=O)C[C@H]2S1(=O)=O` [Tazobactam, tazobactam], the “Relative stability” value in data set [1] was “more stable in whole blood than in plasma”. Moreover, the “Length of time” value in data set [1] (4°C) is 48h 4 °C; in data set [1] (RT (room temperature)), 24h RT; in data set [2] (4°C), 24h 4 °C; in data set [2] (RT (room temperature)), 8h RT; in data set [2] (−20°C, W = week), 1W−20 °C.

Take `CC(C)(O/N=C(\C(=O)N[C@@H]1C(=O)N2C(C(=O)[O-])=C(C[n+]3ccccc3)CS[C@H]12)c1csc(N)n1)C(=O)O` [Ceftazidime, ceftazidime]: the “Length of time” value in data set [2] (4°C) turned out to be 8h 4 °C.

For the compound `CO/N=C(\C(=O)N[C@@H]1C(=O)N2C(C(=O)[O-])=C(C[N+]3(C)CCCC3)CS[C@H]12)c1csc(N)n1` [Cefepime, cefepime], the “Length of time” value in data set [1] (4°C) is 48h 4 °C; in data set [1] (RT (room temperature)) it was 24h RT; in data set [2] (4°C) it was 8h 4 °C; in data set [2] (RT (room temperature)) it was 5h RT; in data set [2] (−20°C, W = week), 1W−20 °C; in data set [2] (−80°C, M = month), 8M−80 °C.

As to `C[C@@H](O)[C@H]1C(=O)N2C(C(=O)O)=C(S[C@@H]3CN[C@H](C(=O)N(C)C)C3)[C@H](C)[C@H]12` [Meropenem, meropenem], the “Relative stability” value in data set [1] was “more stable in whole blood than in plasma”. The “Length of time” value in data set [1] (4°C) was 48h 4 °C; in data set [1] (RT (room temperature)), 8h RT; in data set [2] (4°C), 24h 4 °C; in data set [2] (RT (room temperature)) it was 8h RT; in data set [2] (−20°C, W = week) it was 1W−20 °C; in data set [2] (−80°C, M = month), 8M−80 °C.

Regarding `Cc1nnc(SCC2=C(C(=O)O)N3C(=O)[C@@H](NC(=O)Cn4cnnn4)[C@H]3SC2)s1` [Cefazolin, cefazolin], in data set [1], the “Relative stability” value was “stable in both matrices”. The “Length of time” value in data set [1] (4°C) amounted to 48h 4 °C; in data set [1] (RT (room temperature)) it was 24h RT; in data set [2] (4°C), 48h 4 °C; in data set [2] (RT (room temperature)) it was 24h RT; in data set [2] (−20°C, W = week) it was 2W−20 °C; in data set [2] (−80°C, M = month), 8M−80 °C.
